Read-outs that look alike come from different tables or passages of the source. No end group written: not given here.
Legend:
GST-HsPRMT7 [1] = molecular target: T1, GST-HsPRMT7 (Homo sapiens, UniProt Q9NVM4); test: Michaelis-Menten kinetics of peptide substrate methylation (P81 phosphocellulose paper assay); assay type: biochemical; design: key to Vmax, Michaelis-Menten best-fit value, Fig7 / Vmax, Michaelis-Menten best-fit value, Fig8: Vmax expressed as cpm (averages of cycles 2–4); settings: for Km / Vmax, Michaelis-Menten best-fit value, Fig7 / Vmax, Michaelis-Menten best-fit value, Fig8: 60 min, 25°C; for change of Vmax after adding 130 mM KCl: with vs without 130 mM KCl (Fig 8, Table 2), in words; for Vmax, times lower than RKR: experiments of Fig 7, relative to RKR peptide
T1 construct: full-length human PRMT7 (residues 1–692); 34693; host or cells: E. coli BL21 DE3
T1 sequence (Q9NVM4 1-692): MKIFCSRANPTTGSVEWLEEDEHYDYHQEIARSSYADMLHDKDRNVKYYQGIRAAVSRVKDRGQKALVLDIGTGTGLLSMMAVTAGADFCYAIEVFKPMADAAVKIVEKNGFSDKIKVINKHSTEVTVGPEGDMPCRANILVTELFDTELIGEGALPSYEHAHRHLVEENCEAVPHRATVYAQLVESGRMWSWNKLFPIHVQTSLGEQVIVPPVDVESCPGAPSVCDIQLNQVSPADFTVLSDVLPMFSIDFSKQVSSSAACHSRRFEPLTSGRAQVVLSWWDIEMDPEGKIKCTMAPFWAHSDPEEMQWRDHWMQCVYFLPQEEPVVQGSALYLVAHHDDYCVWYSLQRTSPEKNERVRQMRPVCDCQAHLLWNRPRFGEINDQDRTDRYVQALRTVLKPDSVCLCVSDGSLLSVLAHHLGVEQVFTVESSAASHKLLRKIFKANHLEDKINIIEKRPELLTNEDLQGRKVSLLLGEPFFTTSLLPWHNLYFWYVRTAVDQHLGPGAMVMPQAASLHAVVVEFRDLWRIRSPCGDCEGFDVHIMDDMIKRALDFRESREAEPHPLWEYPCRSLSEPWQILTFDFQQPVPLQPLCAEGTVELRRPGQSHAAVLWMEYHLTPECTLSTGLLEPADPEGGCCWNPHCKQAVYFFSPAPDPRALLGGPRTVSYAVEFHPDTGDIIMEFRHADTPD
Procedure: (§1) In vitro methylation assays were performed with GST-HsPRMT7, the indicated substrate protein or peptide, and 1.4 μM S-adenosyl-L-[methyl-^3H]methionine ([^3H]-AdoMet; PerkinElmer cat no. NET155V), prepared from diluting a stock of 7.0 μM [^3H]-AdoMet (81.9 Ci/mmol, 1 mCi/mL in 9:1 10 mM H2SO4:EtOH, v/v) in 10 mM HCl. All reactions were performed using distilled water buffered with 50 mM potassium HEPES, pH 9.5 and 1 mM DTT, reaching a final reaction volume of 30 μL. The reactions were initiated by adding [^3H]-AdoMet to a final concentration of 0.14 μM. Control reactions (enzyme-only, substrate-only) contained distilled water instead of substrate or GST-HsPRMT7, respectively. After initiation with [^3H]-AdoMet, all reactions analyzed via P81 phosphocellulose filter paper assay were incubated in a water bath at 25°C unless otherwise indicated for the specified time periods and were terminated with 0.5 μL 100% (w/v) trifluoroacetic acid (TFA). P81 assays performed at t = 0 were individually terminated immediately following initiation. Samples analyzed via SDS-PAGE were incubated at 4°C for 24 hours and were quenched by adding 5x SDS sample loading buffer (250 mM Tris-HCl, pH 6.8; 10% SDS, 30% glycerol, 10% β-mercaptoethanol, 0.2% bromophenol blue), followed by heating at 97°C for 3 min.
(§2) In vitro methylation assays with GST-HsPRMT7, selected methyl-accepting substrates, and [^3H]-AdoMet were set up as described previously and performed in triplicate. Following incubation at 25°C unless otherwise indicated for the time periods specified, all samples were quenched with 0.5 μL 100% TFA and centrifuged at 9,300 g for 10 seconds in an Eppendorf centrifuge (Model 5417C). 1 cm^2 pieces of P81 phosphocellulose filter paper (LabAlley catalog no. 05-717-2A) were spotted with 25 μL from each reaction mixture and set to dry overnight. The following day, all filter paper pieces were washed three times with 50 mM sodium bicarbonate solution, pH 9.0, and dried again in liquid scintillation vials. After 5 mL of Safety Solve fluor (RPI industries) was added to each vial, [^3H] radioactivity in each sample was quantified via liquid scintillation counter (Beckman LS6500) for four total cycles at 5 minutes per sample. All data presented are expressed as averages of the cpm from cycles 2–4.
(§3) Statistical analyses were performed using the “Analyze Data” function on GraphPad Prism v.8.0.1. To determine statistical significance, unpaired homoscedastic two-tailed Student’s t tests were performed with significance level α = 0.05 with the relevant data. To obtain apparent km and Vmax values, kinetic data were analyzed by non-linear regression using the Michaelis-Menten equation.

GST-HsPRMT7 [2] = molecular target: T1, GST-HsPRMT7; test: P81 phosphocellulose filter paper methylation assay with peptide substrates (cpm, end point and time course); assay type: biochemical; settings: for methylation activity compared with enzyme-only control: 0-120 min time course (Fig 6); for Difference between means ± SEM vs GST-HsPRMT7 + 10 uM Hs H2B (23-37), Fig5: 10 uM peptide, 4°C
Procedure: as §1, §2, §3

human PRMT7 = settings: relative to unsubstituted peptide; cited from earlier work
Procedure: Comparatively, a previous study of ionic strength in human HEK293 cells estimates the intracellular concentration of potassium ions to be about 120–140 mM in human cells. As such, our results in Fig 7 led us to question whether this dramatic decrease in activity may be associated with a loss of either substrate-enzyme binding affinity or catalytic activity. || We confirm that human PRMT7 activity is quite sensitive to changes in the RXR target sequence in the substrate protein. […] The exquisite specificity of PRMT7 toward the basic RXR motif can be contrasted to the much broader speci ...

[3] = + 130 mM KCl, 5 μg GST-HsPRMT7, 0.14 μM [3H]-AdoMet, GraphPad Prism fit, read-out: Km, Michaelis-Menten best-fit value, Fig8
[4] = +130 mM KCl, apparent km, 5 μg GST-HsPRMT7, various peptide concentrations, 0.14 μM [3H]-AdoMet, pH 9.5, Michaelis-Menten fit, triplicates (Fig 8), read-out: km
[5] = no added salt, 5 μg GST-HsPRMT7, 0.14 μM [3H]-AdoMet, GraphPad Prism fit
[6] = no added salt, 5 μg GST-HsPRMT7, 0.14 μM [3H]-AdoMet, GraphPad Prism fit, read-out: Km, Michaelis-Menten best-fit value, Fig7
[7] = no added salt, apparent km of peptide substrate, 5 μg GST-HsPRMT7, various peptide concentrations, 0.14 μM [3H]-AdoMet, pH 9.5, Michaelis-Menten fit, triplicates (Fig 8), read-out: km
[8] = no salt, 5 μg GST-HsPRMT7, 0.14 μM [3H]-AdoMet, GraphPad Prism fit
[9] = no salt, 5 μg GST-HsPRMT7, 0.14 μM [3H]-AdoMet, GraphPad Prism fit, read-out: Km, Michaelis-Menten best-fit value, Fig8
[10] = no added salt, 5 μg GST-HsPRMT7, 0.14 μM [3H]-AdoMet, experiments of Fig 7, read-out: apparent km (binding affinities), Fig 7
[11] = 10 μM peptide, 5 μg GST-HsPRMT7, 25°C, in words
[12] = from Table 2, no added salt, response to reviewers, RGG peptide apparently = Mono R

Substance | Km (GST-HsPRMT7 [1]; [3]) [µM] | Km (GST-HsPRMT7 [1]; [4]) [µM] | Vmax, Michaelis-Menten best-fit value, Fig7 (GST-HsPRMT7 [1]; [5]) | Km (GST-HsPRMT7 [1]; [6]) [µM] | Km (GST-HsPRMT7 [1]; [7]) [µM] | Vmax, Michaelis-Menten best-fit value, Fig8 (GST-HsPRMT7 [1]; [8]) | Km (GST-HsPRMT7 [1]; [9]) [µM] | change of Vmax after adding 130 mM KCl (GST-HsPRMT7 [1]) | PRMT7 activity with substituted human histone H2B (23–37) peptides (human PRMT7) | also measured
Ac-KKGGRGRKGKKY-NH2 [synthetic RXR peptide with an additional lysine after the RGR motif] | 2.43 | 2.4 | 1042 | 0.5 | 0.5 | 969.7 | 0.514 | up to an approximately three-fold decrease | – | –
Ac-KKGGRERGGKKY-NH2 [synthetic RXR peptide with glutamate within the motif] | – | – | 299.5 | 0.192 | 2.8 | 752.7 | 2.79 | – | – | Vmax, times lower than RKR (GST-HsPRMT7 [1]): 5–6 times; Km (GST-HsPRMT7 [1]; [10]): 2.8 µM
Ac-KKGGRGGGGKKY-NH2 [Mono R, synthetic peptide with a single arginine flanked by glycine and lysine residues] | 0.28 | – | 262.6 | 0.223 | 1.4 | 993.4 | 1.42 | – | – | Vmax, times lower than RKR (GST-HsPRMT7 [1]): 5–6 times; Km (GST-HsPRMT7 [1]; [10]): 1.4 µM; PRMT7 methylation activity (GST-HsPRMT7 [2]; 10 μM peptide, 5 μg GST-HsPRMT7, 0.14 μM [3H]-AdoMet, 20 h, 4°C (Fig 5), in words): barely detectable over the PRMT7-only control; methylation activity compared with enzyme-only control (GST-HsPRMT7 [2]; [11]): not significantly greater than control; Difference between means ± SEM vs GST-HsPRMT7 + 10 uM Hs H2B (23-37), Fig5 (GST-HsPRMT7 [2]; 20 h, n = 3, SEM): -4140 ± 625.1 cpm
Ac-KKGKRGRGGKKY-NH2 [synthetic RXR peptide with an additional lysine before the RGR motif] | 3.35 | 3.3 | 1553 | 0.895 | 0.6 | 1150 | 0.601 | up to an approximately three-fold decrease | – | –
R33K: human histone H2B (23–37) peptide with R33K substitution, from ref 11 (KKDGKKRKRSKKESY; not fully specified (N-terminus, C-terminus); UniProt P62807 24-38, looked up, variant R33K) | – | – | – | – | – | – | – | – | at least a two-thirds reduction | –
KKDGKKRRKSRKESY [Xl H2B (23–37), synthetic peptide of amino acids 23–37 of Xenopus laevis histone H2B, containing 29-RRKSR-33] | – | – | – | – | – | – | – | – | – | GST-HsPRMT7 methylation activity (GST-HsPRMT7 [2]; 10 μM peptide, 5 μg GST-HsPRMT7, 0.14 μM [3H]-AdoMet, 40 min, 25°C (Fig 3), in words): no significant methylation activity over background; methylation activity compared with enzyme-only control (GST-HsPRMT7 [2]; [11]): low methylation activity but was significantly above control; methylation by human PRMT7 (GST-HsPRMT7 [2]; 10 and 50 μM peptide, 5 μg GST-HsPRMT7, 25°C, 0-3 h time course (Fig 4), in words): methylated by human PRMT7, albeit at low levels; Mean of GST-HsPRMT7 + peptide, Fig3 (GST-HsPRMT7 [2]; mean of n = 3, 10 μM peptide, 40 min, 25°C): 98.42 cpm; Difference between means ± SEM vs peptide only, Fig3 (GST-HsPRMT7 [2]; n = 3, 10 μM peptide, 40 min, 25°C, SEM): 28.16 ± 17.00 cpm
R29K: human histone H2B (23–37) peptide with R29K substitution, from ref 11 (KKDGKKKKRSRKESY; not fully specified (N-terminus, C-terminus); UniProt P62807 24-38, looked up, variant R29K) | – | – | – | – | – | – | – | – | at least a two-thirds reduction | –
Ac-KKGGRKRGGKKY-NH2 [synthetic RXR peptide with lysine within the motif] | 6.88 | 6.9 | 1749 | 0.759 | 0.6 | 1716 | 0.553 | up to an approximately three-fold decrease | – | –
Ac-KKGGRGRGGKKY-NH2 [synthetic peptide with an RGR motif flanked by glycine and lysine residues] | 6.21 | 6.2 | 1036 | 0.682 | 0.7 | 2435 | 0.743 | up to an approximately three-fold decrease | – | Vmax relative to the RGG peptide (GST-HsPRMT7 [1]; [12]): about 2.5 fold; apparent km relative to the RGG peptide (GST-HsPRMT7 [1]; [12]): about half; methylation activity (maximum value) (GST-HsPRMT7 [2]; 10 μM peptide, 5 μg GST-HsPRMT7, 0.14 μM [3H]-AdoMet, 25°C, t = 120 min (Fig 6), approximate): about 800 cpm; decrease of PRMT7 activity relative to human H2B (23–37) (GST-HsPRMT7 [2]; 10 μM peptide, 5 μg GST-HsPRMT7, 0.14 μM [3H]-AdoMet, 20 h, 4°C (Fig 5)): 4 to 5 fold; Difference between means ± SEM vs GST-HsPRMT7 + 10 uM Hs H2B (23-37), Fig5 (GST-HsPRMT7 [2]; 20 h, n = 3, SEM): -2852 ± 662.1 cpm
R31K-substituted human H2B (23–37): R31K-substituted human H2B (23–37) peptide, from ref 11 (KKDGKKRKKSRKESY; not fully specified (N-terminus, C-terminus); UniProt P62807 24-38, looked up, variant R31K) | – | – | – | – | – | – | – | – | no methyl-accepting activity | –
